Data set [1] in a line: method code SF-AS, from DOI: 10.1016/0378-5173(82)90004-7. The note with it: pH 3.0.
The nature of data set [2]: method code SF-AS, from DOI: 10.1246/bcsj.63.3542.
Data set [3] is described as follows: method code SF-AS, from DOI: 10.1248/cpb.40.925.
The nature of data set [4]: from Bazaco, J.; Coca, C. (1989). Relation between the partition coefficient (Log Pow) and capacity factor (Log k') derived from reversed-phase HPLC of a series of benzaldehyde derivatives. Ciencia e ….
Assay in data set [5]: not given
The source holds these as a separate data set.

Data set [6] is described as follows: method code SF-AS, from DOI: 10.1111/j.1440-1681.1976.tb00621.x, PMID: 10116.
Data set [7] in a line: method code SF, from DOI: 10.1016/0360-3016(89)90912-7, PMID: 2703384. The note with it: pH 7.4.
A short description of data set [8]: method code SF, from DOI: 10.1034/j.1399-3011.2003.00037.x, PMID: 12492901. The settings on record: pH 2.0.
Assay in data set [9]: not given
The source holds these as a separate data set.

Data set [10] is described as follows: method code SF, from DOI: 10.1039/p29920000723.
Assay in data set [11]: not given
The source holds these as a separate data set.

Data set [12] can be described thus: method code SF-AS, from DOI: 10.1248/cpb.35.377.
Assay in data set [13]: not given
This is another data set of the same source.

A short description of data set [14]: method code SF-GLC, from DOI: 10.1080/03086648508073361.
Assay in data set [15]: not given
This is another data set of the same source.

Assay in data set [16]: not given
This is another data set of the same source.

Assay in data set [17]: not given
The source holds these as a separate data set.

Data set [18] can be described thus: method code SF-AS, from DOI: 10.1002/ps.2780110406.
Data set [19] in a line: method code SF-AS, from DOI: 10.1021/j150653a049.
Assay in data set [20]: not given
This is another data set of the same source.

Assay in data set [21]: not given
The source holds these as a separate data set.

Data set [22] in a line: method code SF, from DOI: 10.1002/jps.2600830714, PMID: 7965679.
Assay in data set [23]: not given
The source holds these as a separate data set.

A short description of data set [24]: method code SF-AS, from DOI: 10.1021/jm00254a011, PMID: 4845376.
Assay in data set [25]: not given
This is another data set of the same source.

Data set [26] is described as follows: method code SF-GLC, from DOI: 10.1021/je00020a050.
The nature of data set [27]: method code SF, from DOI: 10.1016/0360-3016(92)90876-j, PMID: 1735696. The settings on record: pH 7.4.
The nature of data set [28]: method code G-HPLC, from DOI: 10.6028/nbs.ir.81-2406.
A short description of data set [29]: method code SF, from Dai, J-Y.; Han, S.; Wang, L. (2000). Prediction of partition properties of substituted benzaldehydes using different structural parameters. Zhongguo Huanjing Kexue (China Environmental Science), ….

For `c1ccc2cc3c(ccc4ccccc43)cc2c1`, the logP – broadly, the decadic logarithm of the partition coefficient of the neutral form, usually between octanol and water – was found to be 5.93.

For `CC1(C)C(=O)NC(=O)NC1=O`, in data set [1], the logD – broadly, the decadic logarithm of the distribution of all forms, ionised or not, between an organic phase and buffer at a given pH – is -0.44. For `CN(C)C(=O)c1ccccn1`, the logP in [2] was -0.45.

The compound `COC(=O)c1cc2ccccc2o1` yielded a logP in data set [3] of 2.53. `CC(C)=CCC1(C(C)(C)C)C(=O)NC(=O)NC1=O` had a logD in [1] of 2.56.

Take `COc1ccccc1C=O`: the logP in data set [4] stood at 1.72. As for `CCCCC1C(=O)N(c2ccccc2)N(c2ccc(O)cc2)C1=O` (centres undefined), in [5], the logP was determined as 3.04. `CC(C)C(Cl)C(=O)NC(N)=O` (centres undefined): the lipophilicity (logP) in [6] is 1. In [7], `O=[N+]([O-])c1cn(CC(F)CO)cn1` (centres undefined) came in with a logD of -0.8. With `CC(=O)N[C@@H](Cc1c[nH]c2ccccc12)C(=O)O`, the logD in data set [8] amounted to 0.57.

`COc1ccccn1` showed a logP of 1.23. Regarding `CC(C)(C)O`, in data set [9], the log partition coefficient (logP) worked out at 0.34. As for `CCS(=O)(=O)NC(=O)CCc1ccccc1`, the logP in data set [10] came out at 1.67.

With `CC(C)(C)C1CCC(O)CC1` (centres undefined), the logP in data set [11] was 3.09.

As to `OCc1c(Cl)cccc1Cl`, the logP in data set [12] was 2.02. In turn, `Clc1ccc(-c2ccccc2)cc1Cl` came in with a logP in data set [9] of 5.11.

For the compound `On1nc2ccccc2n1`, in [13], the logP was 0.69.

Turning to `CN(C)P(=O)(N(C)C)N(C)C`, in [14], the logP is 0.09. In data set [2], `CNc1cnccn1` returned a logP of 0.56.

Turning to `CCCC(C)=O`, the logP in data set [15] turned out to be 0.95. The compound `Cn1ccc(=O)c(O)c1` displayed a logP in data set [16] of -0.7.

Take `O=C(O)c1ccc(I)cc1`: the logP in [17] was 3.13. As to `CCOP(=O)(NC(C)C)Oc1ccc(SC)c(C)c1` (centres undefined), in data set [18], the logP came out at 3.18. On to `CNC(=S)NCC(F)(F)C(F)(F)C(F)(F)F`, for which, in [10], the logP was found to be 2.39. The compound `CCN(CC)P(=O)(N(CC)CC)N1CCCC1` returned a logP in data set [14] of 2.39. Compound `OCc1ccccc1O` registered a logP in data set [19] of 0.56.

`O=C(O)CNc1ccc([N+](=O)[O-])cc1[N+](=O)[O-]` gave a logD in [8] of 1.56. `CC(C)=CCC1(C(C)C)C(=O)NC(=O)NC1=O` displayed a logD in [1] of 2.23. In turn, `OCc1ccc(Br)cc1` registered a logP in data set [20] of 2.15. In the case of `O=C(O)c1cc([N+](=O)[O-])cc([N+](=O)[O-])c1`, the logD in data set [8] is 1.75. On to `CC(C(=O)O)c1ccc(C(=O)c2cccs2)cc1` (centres undefined), for which, in data set [17], the logP worked out at 2.83. `Oc1ccccc1O` returned a logP in [21] of 1.1.

In turn, `NC(=O)c1ccccc1Cl` gave a logP of 0.94. `CC(=O)OCC1OC(OC(C)=O)C(NC(=O)C(C)NC(=O)N(CCCl)N=O)C(OC(C)=O)C1OC(C)=O` (centres undefined) gave a logP in data set [22] of 0.71. `Cc1ccc(Cl)cc1Cl` showed a logP in data set [23] of 4.09. On to `N#CCCCCOC(=O)c1ccccc1`, for which the logP in data set [10] is 2.05. Turning to `CN(C)C(=O)c1cnccn1`, in data set [2], the logP was -0.8. In data set [14], `CCN(CC)P(=O)(N(C)C)N(C)C` displayed a logP of 0.66. `Oc1c(O)c(Cl)c(Cl)c(Cl)c1Cl` showed a logP in data set [23] of 4.12. `CC(C)C(Br)C(=O)NC(N)=O` (centres undefined): the logP in data set [6] came out at 1.14.

In turn, `O=[N+]([O-])c1ccc(N2CCNC2=S)o1` returned a logP in [24] of 0.98. `CSc1ccc(C=C2C(C)=C(CC(=O)O)c3cc(F)ccc32)cc1` came in with a logP in [5] of 4.76.

For `OCc1cc(Cl)cc(Cl)c1O`, in [19], the logP was 2.3. Regarding `Cc1c2ccccc2c(C)c2c1ccc1ccccc12`, the logP in [15] is 6.16. For the compound `Nc1c(F)cc(F)cc1F`, the logP in data set [20] came out at 1.81. Compound `CC(C)NC(=O)C=Cc1ncc([N+](=O)[O-])s1` showed a logP in data set [24] of 1.76. For the compound `CCc1cc(CC)c(OC)c(C(=O)O)c1OC`, the logP in data set [17] was 2.98. Compound `CCCCC(C)O` (centres undefined) came in with a logP in data set [11] of 1.76.

For `O=c1cc(-c2ccccc2)oc2ccc3ccccc3c12`, in data set [25], the logP amounted to 4.94.

Turning to `COc1c(Cl)c(Cl)c(Cl)c(Cl)c1OC`, the logP in data set [26] was found to be 4.86.

Regarding `O=C(CCCn1ccnc1[N+](=O)[O-])NO`, the logD in data set [27] is -1.11. The compound `COc1cc2c(c(OC)c1OC)-c1ccc(O)c(=O)cc1[C@@H](NC(C)=O)CC2` had a logP in [13] of 1.03. `Nc1ccccc1C(=O)O`: in [12], the logP worked out at 1.13. In data set [28], `Cc1c(C)c(C)c(C)c(C)c1C` displayed a logP of 4.61.

In turn, `Cc1ccc(O)c(C)c1` showed a logP in data set [9] of 2.48. In turn, `CONC(=O)CCCn1ccnc1[N+](=O)[O-]` gave a logD in data set [27] of -0.74. As to `O=Cc1ccc(Br)cc1`, the logP in data set [29] is 2.75. The compound `Clc1cc(Cl)c(Cl)c(Cl)c1` had a logP in data set [18] of 4.68.

`CC(=O)OCC(=O)[C@H]1CC[C@H]2[C@@H]3CCC4=CC(=O)CC[C@]4(C)[C@H]3CC[C@]12C`: in data set [13], the log partition coefficient (logP) came to 3.08. With `COc1cc(Cl)c(Cl)c(Cl)c1OC`, the logP in [26] turned out to be 4.01. Regarding `O=[N+]([O-])c1nccn1CC(F)CO` (centres undefined), the logD in data set [7] was -0.38.

In data set [20], `OCc1ccccc1F` displayed a logP of 1.3.

In turn, `CCOP(=S)(OCC)Oc1cccc(F)n1` showed a lipophilicity (logP) in data set [18] of 3.51.

Regarding `CC(C)n1ccc(=O)c(O)c1`, in [16], the logP is -0.02. Compound `Cc1cc(C)c(O)c(C)c1` returned a logP in data set [28] of 2.73. Turning to `CCCn1ccc(=O)c(O)c1`, the logP in data set [16] is -0.17. In [25], `Brc1ccsc1Br` yielded a logP of 3.53. Turning to `O=NN(CCCl)C(=O)N[C@@H](Cc1ccccc1)C(=O)O`, the logP in data set [22] is -0.28. In turn, `OC1CCCCC1` returned a logP in [15] of 1.36. Turning to `CC(C)Oc1ccc(C=O)cc1`, the logP in [29] was 2.3. As to `CCOc1ccc(C=O)cc1`, in data set [29], the logP is 2.09. Compound `COC(=O)c1ccc(Br)o1` yielded a logP in data set [3] of 1.84. `O=S1CCCC1` showed a logP in data set [5] of -0.96. In the case of `CCCCC(O)CCC` (centres undefined), the logP in [11] was determined as 2.68.

In turn, `NC(=S)Nc1cccc2ccccc12` had a logP in [25] of 1.66. In turn, `CCOc1cc(C=O)ccc1O` came in with a logP in data set [4] of 1.58.

Turning to `O=NN(CCCl)C(=O)NCC(=O)O`, the logP in data set [22] is -1.25. In data set [12], `OCc1ccccc1Cl` gave a logP of 1.77. The compound `Oc1ccc(Cl)cc1Cl` had a logP in [21] of 3.12. On the same count and under the same terms, next, `Cc1ccc(O)cc1`: 2.03. With `Fc1ccc(CCl)cc1`, in data set [28], the logP is 2.73. The compound `COc1ccc(Cl)c(Cl)c1Cl` returned a logP in [26] of 4.03. Take `O=Cc1ccc(F)cc1`: the logP in [4] was 1.54. As to `COCC(F)Cn1cnc([N+](=O)[O-])c1` (centres undefined), in [7], the logD is -0.04. `COC(=O)c1c[nH]c2ccccc12`: the logP in [3] turned out to be 2.57. As for `CN(O)C(=O)Cn1ccnc1[N+](=O)[O-]`, in data set [27], the logD is -0.74. Take `OCc1cc(Cl)ccc1O`: in data set [19], the logP came to 1.44. In the case of `Oc1cc(Cl)c(Cl)c(Cl)c1O`, in data set [23], the logP amounted to 3.56.

In [6], `CCC(Br)(CC)C(=O)NC(N)=O` showed a logP of 1.54.

Values taken from the SangsterLogP compilation.
